According to PubChem BioAssay (NCI):
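Where inhibition never reached the appropriate level, the endpoint shown equals the highest concentration tested. Otherwise, values were interpolated linearly from a five-concentration, 48-hour dose response in 96-well plates. The concentration for 50% growth inhibition is given as GI50. TGI: concentration producing complete growth inhibition.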

Legend:
Experiment in all cases: DTP human tumour cell line panel, 48 h
786-0 renal = tested on: 786-0 renal
A498 renal = tested on: A498 renal
ACHN renal = tested on: ACHN renal
BT-549 breast = tested on: BT-549 breast
CAKI-1 renal = tested on: CAKI-1 renal
CCRF-CEM leukemia = tested on: CCRF-CEM leukemia
COLO 205 colon = tested on: COLO 205 colon
DU-145 prostate = tested on: DU-145 prostate
EKVX NSCLC = tested on: EKVX NSCLC
HCC-2998 colon = tested on: HCC-2998 colon
HCT-116 colon = tested on: HCT-116 colon
HCT-15 colon = tested on: HCT-15 colon
HL-60(TB) leukemia = tested on: HL-60(TB) leukemia
HOP-62 NSCLC = tested on: HOP-62 NSCLC
HOP-92 NSCLC = tested on: HOP-92 NSCLC
HS 578T breast = tested on: HS 578T breast
HT29 colon = tested on: HT29 colon
IGROV1 ovarian = tested on: IGROV1 ovarian
K-562 leukemia = tested on: K-562 leukemia
KM12 colon = tested on: KM12 colon
LOX IMVI melanoma = tested on: LOX IMVI melanoma
M14 melanoma = tested on: M14 melanoma
MALME-3M melanoma = tested on: MALME-3M melanoma
MCF7 breast = tested on: MCF7 breast
MDA-MB-231 breast = tested on: MDA-MB-231 breast
MDA-MB-435 = tested on: MDA-MB-435
MDA-MB-468 breast = tested on: MDA-MB-468 breast
MOLT-4 leukemia = tested on: MOLT-4 leukemia
NCI-H226 lung = tested on: NCI-H226 lung
NCI-H23 lung = tested on: NCI-H23 lung
NCI-H460 lung = tested on: NCI-H460 lung
NCI-H522 lung = tested on: NCI-H522 lung
NCI/ADR-RES ovarian = tested on: NCI/ADR-RES ovarian
OVCAR-3 ovarian = tested on: OVCAR-3 ovarian
OVCAR-4 ovarian = tested on: OVCAR-4 ovarian
OVCAR-5 ovarian = tested on: OVCAR-5 ovarian
OVCAR-8 ovarian = tested on: OVCAR-8 ovarian
PC-3 prostate = tested on: PC-3 prostate
RPMI-8226 leukemia = tested on: RPMI-8226 leukemia
RXF 393 renal = tested on: RXF 393 renal
SF-268 CNS = tested on: SF-268 CNS
SF-295 CNS = tested on: SF-295 CNS
SF-539 CNS = tested on: SF-539 CNS
SK-MEL-2 melanoma = tested on: SK-MEL-2 melanoma
SK-MEL-28 melanoma = tested on: SK-MEL-28 melanoma
SK-OV-3 ovarian = tested on: SK-OV-3 ovarian
SN12C renal = tested on: SN12C renal
SNB-19 CNS = tested on: SNB-19 CNS
SNB-75 CNS = tested on: SNB-75 CNS
SR leukemia = tested on: SR leukemia
SW-620 colon = tested on: SW-620 colon
T-47D breast = tested on: T-47D breast
TK-10 renal = tested on: TK-10 renal
UACC-257 melanoma = tested on: UACC-257 melanoma
UACC-62 melanoma = tested on: UACC-62 melanoma
UO-31 renal = tested on: UO-31 renal

In the case of COc1cc2cc(C(=O)N3C[C@@H](CCl)c4c3cc(OC(=O)N(C)CCSSCCN3CCOCC3)c3ccccc43)[nH]c2c(OC)c1OC, the GI50 (786-0 renal) is reported as 196 nM, the TGI (786-0 renal) is reported as 1050 nM and the GI50 (A498 renal) is reported as 272 nM. It also gave a TGI (A498 renal) of 1330 nM, a GI50 (ACHN renal) of 19.3 nM and a TGI (ACHN renal) of 554 nM. It also gave a GI50 (BT-549 breast) of 66.5 nM, a TGI (BT-549 breast) of 330 nM and a GI50 (CAKI-1 renal) of 137 nM. It also gave a TGI (CAKI-1 renal) of 5730 nM, a GI50 (CCRF-CEM leukemia) of 281 nM and a TGI (CCRF-CEM leukemia) of over 25000 nM. The GI50 (COLO 205 colon) was 1150 nM, the TGI (COLO 205 colon) was 2680 nM and the GI50 (DU-145 prostate) was 34.1 nM. For the same compound, the TGI (DU-145 prostate) was over 25000 nM, the GI50 (EKVX NSCLC) was 178 nM and the TGI (EKVX NSCLC) was 844 nM. The GI50 (HCC-2998 colon) was 154 nM, the TGI (HCC-2998 colon) was 575 nM and the GI50 (HCT-116 colon) was 612 nM. For the same compound, the TGI (HCT-116 colon) was over 25000 nM, the GI50 (HCT-15 colon) was 335 nM and the TGI (HCT-15 colon) was 2990 nM. The GI50 (HL-60(TB) leukemia) was 251 nM, the TGI (HL-60(TB) leukemia) was 4950 nM and the GI50 (HOP-62 NSCLC) was 29.4 nM. For the same compound, the TGI (HOP-62 NSCLC) was 511 nM, the GI50 (HOP-92 NSCLC) was 1130 nM and the TGI (HOP-92 NSCLC) was over 18600 nM. It also gave a GI50 (HS 578T breast) of 627 nM, a TGI (HS 578T breast) of 1970 nM and a GI50 (HT29 colon) of 496 nM. For the same compound, the TGI (HT29 colon) was over 8760 nM, the GI50 (IGROV1 ovarian) was 358 nM and the TGI (IGROV1 ovarian) was 1460 nM. The GI50 (K-562 leukemia) was 608 nM, the TGI (K-562 leukemia) was over 25000 nM and the GI50 (KM12 colon) was 286 nM. It also gave a TGI (KM12 colon) of over 8850 nM, a GI50 (LOX IMVI melanoma) of 41.7 nM and a TGI (LOX IMVI melanoma) of 334 nM. For the same compound, the GI50 (M14 melanoma) was 69.9 nM, the TGI (M14 melanoma) was 318 nM and the GI50 (MALME-3M melanoma) was 229 nM. For the same compound, the TGI (MALME-3M melanoma) was 673 nM, the GI50 (MCF7 breast) was 45.7 nM and the TGI (MCF7 breast) was 2240 nM. For the same compound, the GI50 (MDA-MB-231 breast) was 270 nM, the TGI (MDA-MB-231 breast) was 1180 nM and the GI50 (MDA-MB-435) was 141 nM. The TGI (MDA-MB-435) was 361 nM, the GI50 (MDA-MB-468 breast) was 133 nM and the TGI (MDA-MB-468 breast) was 505 nM. For the same compound, the GI50 (MOLT-4 leukemia) was 51.9 nM, the TGI (MOLT-4 leukemia) was over 25000 nM and the GI50 (NCI-H226 lung) was 29.5 nM. It also gave a TGI (NCI-H226 lung) of 122 nM, a GI50 (NCI-H23 lung) of 33.3 nM and a TGI (NCI-H23 lung) of 164 nM. The GI50 (NCI-H460 lung) was 26.3 nM, the TGI (NCI-H460 lung) was over 9660 nM and the GI50 (NCI-H522 lung) was 1330 nM. For the same compound, the TGI (NCI-H522 lung) was 7370 nM, the GI50 (NCI/ADR-RES ovarian) was 362 nM and the TGI (NCI/ADR-RES ovarian) was 1290 nM. For the same compound, the GI50 (OVCAR-3 ovarian) was 575 nM, the TGI (OVCAR-3 ovarian) was 1630 nM and the GI50 (OVCAR-4 ovarian) was 621 nM. The TGI (OVCAR-4 ovarian) was 1830 nM, the GI50 (OVCAR-5 ovarian) was 228 nM and the TGI (OVCAR-5 ovarian) was 1060 nM. The GI50 (OVCAR-8 ovarian) was 125 nM, the TGI (OVCAR-8 ovarian) was 1520 nM and the GI50 (PC-3 prostate) was 214 nM. For the same compound, the TGI (PC-3 prostate) was over 25000 nM, the GI50 (RPMI-8226 leukemia) was 1000 nM and the TGI (RPMI-8226 leukemia) was over 25000 nM. It also gave a GI50 (RXF 393 renal) of 28 nM, a TGI (RXF 393 renal) of 95.1 nM and a GI50 (SF-268 CNS) of 45.4 nM. For the same compound, the TGI (SF-268 CNS) was over 25000 nM, the GI50 (SF-295 CNS) was 87.2 nM and the TGI (SF-295 CNS) was 1470 nM. For the same compound, the GI50 (SF-539 CNS) was 25.7 nM, the TGI (SF-539 CNS) was 116 nM and the GI50 (SK-MEL-2 melanoma) was 210 nM. For the same compound, the TGI (SK-MEL-2 melanoma) was 463 nM, the GI50 (SK-MEL-28 melanoma) was 128 nM and the TGI (SK-MEL-28 melanoma) was 293 nM. The GI50 (SK-OV-3 ovarian) was 107 nM, the TGI (SK-OV-3 ovarian) was 925 nM and the GI50 (SN12C renal) was 69 nM. For the same compound, the TGI (SN12C renal) was 1920 nM, the GI50 (SNB-19 CNS) was 95 nM and the TGI (SNB-19 CNS) was 2550 nM. For the same compound, the GI50 (SNB-75 CNS) was 348 nM, the TGI (SNB-75 CNS) was 921 nM and the GI50 (SR leukemia) was 19.7 nM. For the same compound, the TGI (SR leukemia) was over 25000 nM, the GI50 (SW-620 colon) was 865 nM and the TGI (SW-620 colon) was over 25000 nM. For the same compound, the GI50 (T-47D breast) was 1010 nM, the TGI (T-47D breast) was 5720 nM and the GI50 (TK-10 renal) was 819 nM. The TGI (TK-10 renal) was 3120 nM, the GI50 (UACC-257 melanoma) was 642 nM and the TGI (UACC-257 melanoma) was 4320 nM. It also gave a GI50 (UACC-62 melanoma) of 130 nM, a TGI (UACC-62 melanoma) of 482 nM and a GI50 (UO-31 renal) of 69.2 nM. The TGI (UO-31 renal) was 452 nM.
